Results taken from the supplement of paper PMC11061612.

Key:
[1] = system: GB-1 (Glioblastoma); test: Bliss excess, mean over the matrix (fraction); higher = more synergy
How it was run: (§1)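 Bliss excess equals the observed combination effect minus the expected value EA + EB − EA·EB, where EA and EB are the effects of each agent alone. Combination Emax is the second-highest inhibition within the matrix. Inhibition was scaled from CellTiter-Glo 2.0 luminescence, with 0 set by vehicle wells and 1 by blank wells, after 72 hours of two-drug dosing of cells plated in 1536-well plates.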

[2] = system: RKN (Other Solid Carcinomas); test: as above
How it was run: as §1

[3] = system: SF539 (Glioblastoma); test: as above
How it was run: as §1

[4] = system: PC-3_[JPC-3] (Lung Adenocarcinoma); test: combination Emax (second highest fraction inhibited in the dose matrix, 72 h); higher = more inhibition; extreme values may be limits of the assay
How it was run: as §1

[5] = system: NCI-H2342 (Lung Adenocarcinoma); test: as above
How it was run: as §1

[6] = system: NCI-H446 (Small Cell Lung Carcinoma); test: as above
How it was run: as §1

[7] = system: RERF-GC-1B (Gastric Carcinoma); test: as above
How it was run: as §1

[8] = system: MFE-280 (Endometrial Carcinoma); test: as above
How it was run: as §1

[9] = system: SF268 (Low Grade Glioma); test: as above
How it was run: as §1

[10] = system: VAL (B-Cell Non-Hodgkin's Lymphoma); test: as above
How it was run: as §1

[11] = system: OVMIU (Ovarian Carcinoma); test: as above
How it was run: as §1

[12] = system: PANC-03-27 (Pancreatic Carcinoma); test: as above
How it was run: as §1

[13] = system: A2058 (Melanoma); test: as above
How it was run: as §1

[14] = system: WM793B (Melanoma); test: as above
How it was run: as §1

[15] = system: CAL-120 (Breast Carcinoma); test: as above
How it was run: as §1

[16] = system: KE-37 (T-Lymphoblastic Leukemia); test: as above
How it was run: as §1

[17] = system: COLO-680N (Esophageal Squamous Cell Carcinoma); test: as above
How it was run: as §1

[18] = system: RCM-1 (Colorectal Carcinoma); test: as above
How it was run: as §1

[19] = system: MKN45 (Gastric Carcinoma); test: as above
How it was run: as §1

[20] = system: CAL-62 (Thyroid Gland Carcinoma); test: as above
How it was run: as §1

Row | SMILES | Bliss excess [1] | Bliss excess [2] | Bliss excess [3] | combination Emax [4] | combination Emax [5] | combination Emax [6] | combination Emax [7] | combination Emax [8] | combination Emax [9] | combination Emax [10] | combination Emax [11] | combination Emax [12] | combination Emax [13] | combination Emax [14] | combination Emax [15] | combination Emax [16] | combination Emax [17] | combination Emax [18] | combination Emax [19] | combination Emax [20]
1 | CC1(C)CCC(CN2CCN(c3ccc(C(=O)NS(=O)(=O)c4ccc(NCC5CCOCC5)c([N+](=O)[O-])c4)c(Oc4cnc5[nH]ccc5c4)c3)CC2)=C(c2ccc(Cl)cc2)C1 [Venetoclax] + Cc1cc2ncnn2cc1Nc1ncc2c(n1)n(C1CCOCC1)c(=O)n2C [AZD7648] (first compound max 1 µM, 7x7, partner max 10 µM) | -0.0591 | -0.062 | 0.0069 | 0.297 | 0.214 | 0.403 | 0.28 | 0.319 | 0.268 | 1 | 0.374 | 0.584 | 0.203 | 0.309 | 0.125 | 0.404 | 0.161 | 0.362 | 0.588 | 0.366
2 | Cc1cc2ncnn2cc1Nc1ncc2c(n1)n(C1CCOCC1)c(=O)n2C [AZD7648] + C[C@@H]1COCCN1C2=NC(=NC(=C2)C3(CC3)[S@](=N)(=O)C)C4=C5C=CNC5=NC=C4 [AZD6738] (first compound max 10 µM, 7x7, partner max 10 µM) | -0.017 | 0.0086 | -0.0166 | 0.426 | 0.24 | 0.786 | 0.457 | 0.337 | 0.303 | 0.918 | 0.528 | 0.824 | 0.271 | 0.818 | 0.325 | 1 | 0.265 | 0.855 | 0.793 | 0.724
3 | COc1cccc(OCCCN)c1-c1cc(Nc2cnc(C#N)cn2)n[nH]1 [Prexasertib] + C=CCn1c(=O)c2cnc(Nc3ccc(N4CCN(C)CC4)cc3)nc2n1-c1cccc(C(C)(C)O)n1 [AZD1775] (first compound max 1 µM, partner max 1 µM) | 0.0483 | 0.117 | 0.0187 | 0.588 | 0.415 | 0.995 | 0.887 | 0.739 | 0.561 | 0.921 | 0.814 | 0.925 | 0.519 | 0.938 | 0.685 | 1 | 0.505 | 0.822 | 0.865 | 0.86
4 | COc1cccc(OCCCN)c1-c1cc(Nc2cnc(C#N)cn2)n[nH]1 [Prexasertib] + Cc1cc2ncnn2cc1Nc1ncc2c(n1)n(C1CCOCC1)c(=O)n2C [AZD7648] (first compound max 1 µM, 7x7, partner max 10 µM) | 0.0387 | -0.0293 | 0.014 | 0.324 | 0.309 | 0.97 | 0.552 | 0.405 | 0.48 | 0.932 | 0.624 | 0.898 | 0.444 | 0.866 | 0.512 | 1 | 0.37 | 0.796 | 0.811 | 0.776
5 | CN(C)CCCOc1ccc(-c2ccc3ncc4c(c3c2)n(C2CCOCC2)c(=O)n4C)cn1 [AZD0156] + O=C(c1cc(Cc2n[nH]c(=O)c3ccccc23)ccc1F)N1CCN(C(=O)C2CC2)CC1 [Olaparib] (first compound max 3 µM, partner max 3 µM) | 0.014 | 0.0042 | 0.133 | 0.181 | 0.0678 | 0.362 | 0.317 | 0.312 | 0.21 | 0.542 | 0.347 | 0.225 | 0.37 | 0.197 | 0.29 | 0.415 | 0.16 | 0.287 | 0.356 | 0.342
6 | NC1(C(=O)N[C@@H](CCO)c2ccc(Cl)cc2)CCN(c2ncnc3[nH]ccc23)CC1 [Capivasertib] + CC(C)n1c(=O)n(C)c2cnc3cc(F)c(-c4ccc(OCCCN5CCCCC5)nc4)cc3c21 [AZD1390] (first compound max 10 µM, 7x7, partner max 0.3 µM) | -0.0399 | -0.0477 | -0.0528 | 0.176 | 0.284 | 0.643 | 0.433 | 0.583 | 0.272 | 0.609 | 0.353 | 0.241 | 0.458 | 0.438 | 0.454 | 0.72 | 0.197 | 0.253 | 0.432 | 0.178
7 | CCN(CCO)CCCOc1ccc2c(Nc3cc(CC(=O)Nc4cccc(F)c4)[nH]n3)ncnc2c1 [AZD2811] + C[C@@H]1COCCN1C2=NC(=NC(=C2)C3(CC3)[S@](=N)(=O)C)C4=C5C=CNC5=NC=C4 [AZD6738] (first compound max 1 µM, 7x7, partner max 10 µM) | -0.009 | 0.0009 | -0.0262 | 0.304 | 0.213 | 0.869 | 0.439 | 0.436 | 0.381 | 0.877 | 0.457 | 0.837 | 0.246 | 0.769 | 0.396 | 1 | 0.309 | 0.828 | 0.732 | 0.741
8 | CC1(C)CCC(CN2CCN(c3ccc(C(=O)NS(=O)(=O)c4ccc(NCC5CCOCC5)c([N+](=O)[O-])c4)c(Oc4cnc5[nH]ccc5c4)c3)CC2)=C(c2ccc(Cl)cc2)C1 [Venetoclax] + C=CCn1c(=O)c2cnc(Nc3ccc(N4CCN(C)CC4)cc3)nc2n1-c1cccc(C(C)(C)O)n1 [AZD1775] (first compound max 1 µM, partner max 1 µM) | 0.0144 | -0.0729 | -0.0234 | 0.427 | 0.268 | 0.943 | 0.753 | 0.621 | 0.524 | 1 | 0.682 | 0.855 | 0.413 | 0.531 | 0.31 | 1 | 0.257 | 0.698 | 0.765 | 0.849
9 | CN(CCO)CC[C@H](CSc1ccccc1)Nc1ccc(S(=O)(=O)NC(=O)c2ccc(N3CCC([C@@H](O)c4ccccc4-c4ccc(Cl)cc4)CC3)cc2)cc1S(=O)(=O)C(F)(F)F [AZD4320] + CN(C)CCCOc1ccc(-c2ccc3ncc4c(c3c2)n(C2CCOCC2)c(=O)n4C)cn1 [AZD0156] (first compound max 1 µM, 7x7, partner max 1 µM) | -0.0272 | -0.0417 | -0.0163 | 0.238 | 0.27 | 0.663 | 0.379 | 0.891 | 0.291 | 1 | 0.771 | 0.33 | 0.103 | 0.251 | 0.744 | 1 | 0.137 | 0.435 | 0.316 | 0.228
10 | Cc1c2c(nn1C)CSCc1cc(n(C)n1)CSc1cc(c3ccccc3c1)OCCCc1c(C(=O)O)n(C)c3c-2c(Cl)ccc13 [AZD5991] + CC1(C)CCC(CN2CCN(c3ccc(C(=O)NS(=O)(=O)c4ccc(NCC5CCOCC5)c([N+](=O)[O-])c4)c(Oc4cnc5[nH]ccc5c4)c3)CC2)=C(c2ccc(Cl)cc2)C1 [Venetoclax] (first compound max 1 µM, 7x7, partner max 1 µM) | -0.0257 | -0.0337 | 0.0187 | 0.254 | 0.262 | 0.86 | 1 | 0.193 | 0.248 | 1 | 0.318 | 0.188 | 0.914 | 0.261 | 0.121 | 0.987 | 0.0971 | 0.171 | 0.168 | 0.148
11 | CC1(C)CCC(CN2CCN(c3ccc(C(=O)NS(=O)(=O)c4ccc(NCC5CCOCC5)c([N+](=O)[O-])c4)c(Oc4cnc5[nH]ccc5c4)c3)CC2)=C(c2ccc(Cl)cc2)C1 [Venetoclax] + C[C@@H]1COCCN1C2=NC(=NC(=C2)C3(CC3)[S@](=N)(=O)C)C4=C5C=CNC5=NC=C4 [AZD6738] (first compound max 1 µM, 7x7, partner max 10 µM) | -0.0281 | -0.058 | -0.0339 | 0.442 | 0.265 | 0.924 | 0.428 | 0.423 | 0.64 | 1 | 0.537 | 0.781 | 0.788 | 0.814 | 0.384 | 1 | 0.278 | 0.78 | 0.678 | 0.83
12 | CN(C)CCCOc1ccc(-c2ccc3ncc4c(c3c2)n(C2CCOCC2)c(=O)n4C)cn1 [AZD0156] + C=CCn1c(=O)c2cnc(Nc3ccc(N4CCN(C)CC4)cc3)nc2n1-c1cccc(C(C)(C)O)n1 [AZD1775] (first compound max 1 µM, partner max 1 µM) | -0.0219 | -0.0683 | -0.0023 | 0.393 | 0.162 | 0.801 | 0.772 | 0.55 | 0.225 | 0.846 | 0.519 | 0.91 | 0.121 | 0.452 | 0.326 | 1 | 0.196 | 0.518 | 0.701 | 0.709
13 | Cn1cnc2c(F)c(Nc3ccc(Br)cc3Cl)c(C(=O)NOCCO)cc21 [Selumetinib] + CC(C)n1c(=O)n(C)c2cnc3cc(F)c(-c4ccc(OCCCN5CCCCC5)nc4)cc3c21 [AZD1390] (first compound max 10 µM, 7x7, partner max 0.3 µM) | -0.0574 | 0.0378 | -0.0232 | 0.159 | 0.0339 | 0.262 | 0.368 | 0.17 | 0.139 | 0.0806 | 0.402 | 0.42 | 0.426 | 0.503 | 0.112 | 0.303 | 0.143 | 0.616 | 0.61 | 0.219
